Assay results reported in PMC11306511, “Combining VPS34 inhibitors with STING agonists enhances type I interferon signaling and anti‐tumor efficacy” (Molecular Oncology, 2024).

Key:
Conditions in all cases: 2 μM, 24 h, vs DMSO
Me30966 cells = assay: Gene expression (qRT-PCR) in Me30966 cells; assay type: cell-based, human
Protocol: (A) IFNB1 gene expression quantified by qRT-PCR after 24h treatment with DMSO control or 2 µM of VPS34 inhibitor
(=VPS34i, SB02024 or SAR405) in Me30966 cells.

A-498 cells = assay: IFN/cytokine gene expression (qRT-PCR) and secretion (MSD) in A-498 cells; assay type: cell-based, human
Protocol: (§1) RNA was isolated using the PureLink kit (#12183018A; Thermo Fisher) and DNA‐binding columns (Rneasy plus kit, #74134; Qiagen) and/or Dnase treatment (#12185010; Thermo Fisher). After quantification using NanoDrop, 50 ng·μL^−1 RNA was used for cDNA synthesis with SuperScript IV VILO Master Mix (#11756050; Thermo Fisher). Quantitative RT‐PCR was run with diluted cDNA (1 : 25 or 1 : 12.5), PowerUp SYBR Green Master Mix (#A25741; Thermo Fisher), and 200 nM primers (see Table S3) on a CFX Connect RT‐PCR system (BioRad, Hercules, CA, USA). Data were analyzed using the ΔΔCT method.
(§2) Cell culture medium was centrifuged at 300 g for 10 min at 4 °C and supernatant stored at −80 °C. Mouse blood was collected at termination in K2‐EDTA tubes on ice, centrifuged at 1270 g for 10 min at 4 °C, and plasma was stored at −80 °C. Cytokine levels were quantified using Mesoscale Discovery (MSD) assays: human CCL5 (#F21ZN), CXCL10 (#K151UFK), IFNβ (#K151VIK); mouse CCL5 (#K152A2K) and CXCL10 (#K152UFK). Low concentrations of human IFNβ were determined using High‐Sensitivity IFNβ ELISA (#41415‐1; PBL Assay Science, Piscataway, NJ, USA). CCL5/CXCL10 levels in some experiments were quantified using R&D Systems (Minneapolis, MN, USA) ELISAs: human CCL5 (#DY278) or CXCL10 (#DY266); mouse CCL5 (#DY478).

B16-F10 cells = assay: IFN/cytokine gene expression (qRT-PCR) and secretion (MSD) in B16-F10 cells; assay type: cell-based, murine
Protocol: as §1, §2

C[C@@H]1COCCN1c1cc(=O)n2c(n1)N(Cc1cncc(Cl)c1)[C@H](C(F)(F)F)CC2 [SAR405, reference compound]
significantly increased: IFNB1 expression (Me30966 cells) | transcription of IFNB1 and ISGs IRF1, IRF7, IRF9 (A-498 cells) | transcription of IFNB1 and ISGs IRF1, IRF7, IRF9 (B16-F10 cells)
